# Like-named read-outs stand apart in the source and are kept apart here.
# Experiments:
# [1] = molecular target: T1, human BRD4 bromodomain II (Homo sapiens, UniProt O60885); assay: Bromodomain binding assay (AlphaScreen), BRD4 BDII
# T1 construct: human BRD4 bromodomain II [based on Genbank NM_058243, residues 349-460]; host or cells: E. coli
# Method in brief: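 E. coli-expressed N-terminal His6-tagged human BRD4 BDII (residues 349-460) or BDI (residues 44-170) was preincubated 30 min at room temperature with compound (10-point, 3-fold) in pH 7.5 HEPES buffer, 1% DMSO. Displacement of biotinylated tetra-acetylated H4 1-21 peptide was read by AlphaScreen, and IC50 came from curve fitting.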
# [2] = test system: human SKM-1 acute myeloid leukemia cells; assay: SKM-1 antiproliferation cell-based assay (ATPlite); conditions: Homo sapiens
# Method in brief: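 Log-phase cells in RPMI 1640/15% FBS were seeded at 34722 cells/mL and exposed for 4 days to nine-concentration DMSO serial dilutions in triplicate. Viability was read as ATP luminescence (ATPlite 1step), and IC50 values came from variable-slope non-linear regression.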
# [3] = AlphaScreen assay, Table C2, read-out: BRD4 BDII IC50
# [4] = SKM-1, 96 h, SKM-1 antiproliferation assay, 4 days, Table C2
# [5] = BRD4 BDII AlphaScreen assay, read-out: BRD4 BD2 IC50
# [6] = SKM-1, SKM-1 antiproliferation assay
Compound,"IC50 [1, 3] [nM]","GI50 [2, 4] [nM]","IC50 [1, 5] [nM]","GI50 [2, 6] [nM]"
"CC(C)[C@@H]1CN(c2cc(-c3cc(F)cc(-c4ccc(-n5ccn(C)c5=O)c(Cl)c4)c3O)ccn2)CCN1 [Example 667, (R)-1-(3-chloro-5′-fluoro-2′-hydroxy-3′-(2-(3-isopropylpiperazin-1-yl)pyridin-4-yl)-[1,1′-biphenyl]-4-yl)-3-methyl-1H-imidazol-2(3H)-one]",0.01 to 1,0.3 to 30,–,–
"Cc1cc(-c2ccc(-n3ccn(C)c3=O)c(Cl)c2)c(O)c(-c2cc(N3CCNCC3)c3nccnc3c2)c1 [Example 562, 1-(3-chloro-2′-hydroxy-5′-methyl-3′-(8-(piperazin-1-yl)quinoxalin-6-yl)-[1,1′-biphenyl]-4-yl)-3-methyl-1H-imidazol-2(3H)-one]",0.01 to 1,0.3 to 30,–,–
"Cn1ccn(-c2ccc(-c3cc(F)cc(-c4ccnc(N5CCN(CC(C)(C)C#N)CC5)c4)c3O)cc2Cl)c1=O [Example 652, 3-(4-(4-(3′-chloro-5-fluoro-2-hydroxy-4′-(3-methyl-2-oxo-2,3-dihydro-1H-imidazol-1-yl)-[1,1′-biphenyl]-3-yl)pyridin-2-yl)piperazin-1-yl)-2,2-dimethylpropanenitrile]",0.01 to 1,30 to 300,–,–
"Cn1ccn(-c2ccc(-c3cnnc(-c4cccc(N5CCN(C(C)(C)C)CC5)c4)c3O)cc2Cl)c1=O [Example 1020, 1-(4-(6-(3-(4-(tert-Butyl)piperazin-1-yl)phenyl)-5-hydroxypyridazin-4-yl)-2-chlorophenyl)-3-methyl-1H-imidazol-2(3H)-one]",–,–,> 100,300 to 3000
"Cn1ccn(-c2ccc(-c3cc(F)cc(-c4cc(N5CCN(C(C)(C)C)CC5)ccn4)c3O)cc2Cl)c1=O [Example 953, 1-(3′-(4-(4-(tert-butyl)piperazin-1-yl)pyridin-2-yl)-3-chloro-5′-fluoro-2′-hydroxy-[1,1′-biphenyl]-4-yl)-3-methyl-1H-imidazol-2(3H)-one]",–,–,> 100,300 to 3000
"Cc1ncc(-c2cc(F)cc(-c3ccc(-n4ccn(C)c4=O)c(Cl)c3)c2O)cc1N1CC[C@@]2(CCCN2C(C)C)C1 [Example 955, (S)-1-(3-chloro-5′-fluoro-2′-hydroxy-3′-(5-(1-isopropyl-1,7-diazaspiro[4.4]nonan-7-yl)-6-methylpyridin-3-yl)-[1,1′-biphenyl]-4-yl)-3-methyl-1,3-dihydro-2H-imidazol-2-one]",–,–,1 to 10,0.3 to 30

# Other lines, results leading:
"IC50 [1, 3] [nM]","GI50 [2, 4] [nM]","IC50 [1, 5] [nM]","GI50 [2, 6] [nM]",Compound
–,–,> 100,0.3 to 30,COc1ncc(-c2cc(F)cc(-c3ccc(-n4ccn(C)c4=O)c(Cl)c3)c2OC(C)=O)cc1N1CCN(C(C)C)CC1 [Example 860]
1 to 10,300 to 3000,–,–,"CC(=O)Nc1ccc(-c2cccc(-c3cccc(N4CCN[C@H](C)C4)c3)c2O)cc1F [Example 193, (R)-N-(3-fluoro-2′-hydroxy-3″-(3-methylpiperazin-1-yl)-[1,1′:3′,1″-terphenyl]-4-yl)acetamide]"
10 to 100,300 to 3000,–,–,"Cn1ccn(-c2c(Cl)cc(-c3cc(F)cc(-c4ccnc(N5CCNCC5)c4)c3O)cc2C#N)c1=O [Example 448, 5-chloro-5′-fluoro-2′-hydroxy-4-(3-methyl-2-oxo-2,3-dihydro-1H-imidazol-1-yl)-3′-(2-(piperazin-1-yl)pyridin-4-yl)-[1,1′-biphenyl]-3-carbonitrile]"
0.01 to 1,0.3 to 30,–,–,"CC(C)N1CCN(c2cncc(-c3cc(F)cc(-c4ccc(-n5ccn(C)c5=O)c(Cl)c4)c3O)c2)CC1 [Example 663, 1-(3-chloro-5′-fluoro-2′-hydroxy-3′-(5-(4-isopropylpiperazin-1-yl)pyridin-3-yl)-[1,1′-biphenyl]-4-yl)-3-methyl-1H-imidazol-2(3H)-one]"
0.01 to 1,0.3 to 30,–,–,"Cc1cc(-c2cc(F)cc(-c3ccc(-n4ccn(C)c4=O)c(Cl)c3)c2O)cc(N2CC[C@H](N)C2)n1 [Example 517, (S)-1-(3′-(2-(3-aminopyrrolidin-1-yl)-6-methylpyridin-4-yl)-3-chloro-5′-fluoro-2′-hydroxy-[1,1′-biphenyl]-4-yl)-3-methyl-1H-imidazol-2(3H)-one]"

# — patent US20250179059A1 (The Regents of the University of California, priority 2021, published 2025)
